Laboratory results from ChEMBL document CHEMBL1129047, “(2S,3S,5R)-2-(3,5-difluorophenyl)-3,5-dimethyl-2-morpholinol: a novel antidepressant agent and selective inhibitor of norepinephrine uptake” (J Med Chem, 1996).

Tests used:
[1] = system: Rattus norvegicus; assay: Compound was tested for the inhibition of tetrabenazine-induced sedation in rat, after peroral administration; assay type: functional; settings: po
[2] = system: Mus musculus; assay: Compound was tested for the inhibition of tetrabenazine-induced sedation in mice, after peroral administration; assay type: functional; settings: po
[3] = species: Rattus norvegicus; assay: In vitro inhibition of dopamine (DA) uptake in synaptosomal preparation of rat brain; assay type: functional, organism-based
[4] = species: Rattus norvegicus; assay: In vitro inhibition of norepinephrine (NE) uptake in synaptosomal preparation of rat brain; assay type: functional, organism-based
[5] = species: Rattus norvegicus; assay: In vitro inhibition of serotonin uptake in synaptosomal preparation of rat brain; assay type: functional, organism-based
[6] = system: Rattus norvegicus; assay: Compound was tested for the inhibition of tetrabenazine-induced sedation in rat, after peroral administration; failed to produce a 50%antagonism; assay type: functional; settings: po

Row | Compound | ED50 [1] | ED50 [2] | IC50 [3] | IC50 [4] | IC50 [5] | ED50 [6]
1 | CN(C)CCCN1c2ccccc2CCc2ccccc21 [IMIPRAMINE] | 13.4 mg/kg | 9 mg/kg | > 10000 nM | 40 nM | 500 nM | 
2 | CC(NC(C)(C)C)C(=O)c1cccc(Cl)c1 (stereo not given) [BUPROPION] |  | 32 mg/kg | 900 nM | 2400 nM | > 10000 nM | > 100 mg/kg
3 | C[C@@H]1CO[C@@](O)(c2cc(F)cc(F)c2)[C@H](C)N1 [MANIFAXINE] | 1.4 mg/kg | 6.2 mg/kg | 1000 nM | 70 nM | > 10000 nM | 
